Results: US11702418B2, “SOS1 inhibitors” (priority 2019, dated 2023)
Counter-ions that a name gives are not always drawn. Like-named read-outs stand apart in the source and are kept apart here.

Key:
[1] = target: recombinant human SOS1 polypeptide (amino acids 560-1049) (Homo sapiens (Human), UniProt Q07889); assay: biochemical; assay type: binding; conditions: read-out: Ki, Inhibition of Labeled Tracer Binding to SOS1
Protocol: The ability of a compound of Formula (I) to bind to SOS1 was measured using a HTRF displacement assay. […] After a 1-hour incubation at room temperature, the HTRF signal was measured using Clairostar plate reader (BMG Labtech) according to the manufacturer's instructions. Excitation filter EX-TR was used, and emission 1 was detected at 650-610 nm and emission 2 detected at 620-610 nm. The HTRF ratio was calculated using the formula: [emission 1/emission 2]*10000.
Background signals were calculated from well with a 10 μM inhibitor, known to inhibit 100% at that concentration. The background subtracted signals were converted to % binding relative to DMSO controls. Data were analyzed using XLFIT software (IDBS) using a Morrison equation for competitive binding and Ki's were generated compound of Formula (I).

pERK in MKN1 cells = assay: cells; assay type: cell-based; conditions: Homo sapiens
Protocol: The cells were incubated for approximately 0.5-1 hour with the compounds solubilized in DMSO at 37° C. Cells were immediately fixed by adding 50 μL of 4% formaldehyde to all wells in a fume hood and the plates were incubated for 20 minutes at room temperature. The formaldehyde was discarded from the plates and 150 μL of ice-cold methanol was added to permeabilize the cells for 10 minutes at −20° C. The methanol was discarded from each of the plates and any liquid remaining in the plate by tapping the plate against paper towels. […] The plates were incubated overnight at 4° C. on a shaker.
On Assay day 2, the primary antibody solution was removed. […] The secondary antibody solution as removed and each plate was washed with PBST 3× times. Any liquid remaining was discarded and the plate was imaged using the Licor Odyssey machine according to the manufacturer's instruction, using a set focus length at 3 mm and both 800 nm and 700 nm filters. The GAPDH normalized scan values for each well were divided by the average of vehicle wells to get the % of pERK inhibition. The IC50 values were then calculated with the Graph pad Prism software.

[2] = HTRF displacement, Cy5 labelled tracer, Morrison equation for competitive binding
[3] = MKN-1, pERK inhibition, In-Cell Western, MKN1 or H358 cells (Table 24 does not say which), 0.5-1 hour incubation, read-out: IC50

Chain of recombinant human SOS1 polypeptide (amino acids 560-1049) (Q07889 560-1049): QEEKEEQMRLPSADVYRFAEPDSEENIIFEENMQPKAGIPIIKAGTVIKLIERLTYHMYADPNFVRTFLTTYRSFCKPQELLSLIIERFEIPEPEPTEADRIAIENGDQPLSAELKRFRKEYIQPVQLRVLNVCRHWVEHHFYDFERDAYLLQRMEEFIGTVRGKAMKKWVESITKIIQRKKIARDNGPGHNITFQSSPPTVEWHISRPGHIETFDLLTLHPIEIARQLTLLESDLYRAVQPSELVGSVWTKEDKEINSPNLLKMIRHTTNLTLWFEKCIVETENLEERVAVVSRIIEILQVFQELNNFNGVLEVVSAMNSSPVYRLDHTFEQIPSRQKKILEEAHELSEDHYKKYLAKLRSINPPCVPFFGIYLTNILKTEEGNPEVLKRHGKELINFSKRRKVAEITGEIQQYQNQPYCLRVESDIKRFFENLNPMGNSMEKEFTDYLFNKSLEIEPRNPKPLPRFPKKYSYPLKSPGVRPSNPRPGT

| SMILES | Ki [1] | IC50 (pERK in MKN1 cells; MKN-1) | Ki [1, 2] | IC50 (pERK in MKN1 cells; [3]) |
| --- | --- | --- | --- | --- |
| Cc1c(C#N)cccc1[C@@H](C)Nc1nnc(C)c2ccc(N3CC4(COCCN4C)C3)cc12 [Example 10-79, (R)-2-methyl-3-(1-((4-methyl-7-(5-methyl-8-oxa-2,5-diazaspiro[3.5]nonan-2-yl)phthalazin-1-yl)amino)ethyl)benzonitrile Formate salt] | 4.15 nM | 16 nM | – | – |
| Cc1c(C#N)cccc1[C@@H](C)Nc1nnc(C)c2ccc(N3CCN4CCCC[C@@H]4C3)cc12 [Example 10-82, 2-methyl-3-((R)-1-((4-methyl-7-((R)-octahydro-2H-pyrido[1,2-a]pyrazin-2-yl)phthalazin-1-yl)amino)ethyl)benzonitrile Hydrochloride salt] | 0.86 nM | 52 nM | – | – |
| Cc1nnc(N[C@H](C)c2cccc(C(F)F)c2F)c2cc(N3C[C@H]4C[C@@H]3CO4)ccc12 [Example 10-85, 7-((1R,4R)-2-oxa-5-azabicyclo[2.2.1]heptan-5-yl)-N-((R)-1-(3-(difluoromethyl)-2-fluorophenyl)ethyl)-4-methylphthalazin-1-amine] | – | – | 0.78 nM | 18 nM |
| Cc1nnc(N[C@H](C)c2cccc(C(F)F)c2F)c2cc(N3CCN4CCOC[C@@H]4C3)ccc12 [Example 10-86, N-((R)-1-(3-(difluoromethyl)-2-fluorophenyl)ethyl)-7-((S)-hexahydropyrazino[2,1-c][1,4]oxazin-8(1H)-yl)-4-methylphthalazin-1-amine Formate salt] | 1.51 nM | 21 nM | – | – |
| Cc1c([C@@H](C)Nc2nnc(C)c3ccc(N4CCN(C(=O)[C@H]5CCOC5)CC4)cc23)cccc1C(F)(F)F [Example 11-5, (4-(1-methyl-4-(((R)-1-(2-methyl-3-(trifluoromethyl)phenyl)ethyl)amino)phthalazin-6-yl)piperazin-1-yl)((S)-tetrahydrofuran-3-yl)methanone] | – | – | 0.01 nM | 12 nM |
| Cc1c(C#N)cccc1[C@@H](C)Nc1nnc(C)c2cnc(N3CCN(C(=O)C4CC4)CC3)cc12 [Example 11-6, (R)-3-(1-((7-(4-(cyclopropanecarbonyl)piperazin-1-yl)-4-methylpyrido[3,4-d]pyridazin-1-yl)amino)ethyl)-2-methylbenzonitrile] | – | – | 0.42 nM | 55 nM |
| Cc1c([C@@H](C)Nc2nnc(C)c3cnc(N4CCN(c5cnn(C)c5)CC4)cc23)cccc1C(F)(F)F [Example 12-1, (R)-4-methyl-7-(4-(1-methyl-1H-pyrazol-4-yl)piperazin-1-yl)-N-(1-(2-methyl-3-(trifluoromethyl)phenyl)ethyl)pyrido[3,4-d]pyridazin-1-amine] | – | – | 0.2 nM | 5 nM |
| Cc1c([C@@H](C)Nc2nnc(C)c3cnc(N4CC5CC(C4)O5)cc23)cccc1C(F)(F)F [Example 12-2, 7-(6-oxa-3-azabicyclo[3.1.1]heptan-3-yl)-4-methyl-N—((R)-1-(2-methyl-3-(trifluoromethyl)phenyl)ethyl)pyrido[3,4-d]pyridazin-1-amine] | – | – | 0.6 nM | 9 nM |
| Cc1c([C@@H](C)Nc2nnc(C)c3cnc(N4CC5(COC5)C4)cc23)cccc1C(F)(F)F [Example 12-3] | – | – | 0.74 nM | 30 nM |
| Cc1c([C@@H](C)Nc2nnc(C)c3cnc(N4C[C@H](C)O[C@@H](C)C4)cc23)cccc1C(F)(F)F [Example 12-6] | – | – | 0.87 nM | 522 nM |
| Cc1c([C@@H](C)Nc2nnc(C)c3cnc(N4CCC(C)(O)CC4)cc23)cccc1C(F)(F)F [Example 12-7] | – | – | 0.4 nM | 66 nM |
| Cc1c([C@@H](C)Nc2nnc(C)c3cnc(N4C[C@@H]5C[C@H]4CO5)cc23)cccc1C(F)(F)F [Example 12-8] | – | – | 1.14 nM | 38 nM |
| Cc1c([C@@H](C)Nc2nnc(C)c3cnc(N4C[C@H]5C[C@@H]4CO5)cc23)cccc1C(F)(F)F [Example 12-9] | – | – | 0.47 nM | 10 nM |
| Cc1c([C@@H](C)Nc2nnc(C)c3cnc(O[C@H]4CCN(C)C4)cc23)cccc1C(F)(F)F [Example 12-11] | – | – | 8.76 nM | 142 nM |
